Where a name gives a salt, the structure may show the parent alone. Read-outs that look alike come from different tables or passages of the source.
How the values were obtained:
[1] = tested on: hiPSC-CMs
[2] = tested on: hiPSC-NEURs
[3] = tested on: COVID-19 patients; conditions: cited from earlier work
[4] = tested on: hiPSC-NEURs; assay: Neurotoxicity screen, CellTiter-Glo cell viability in hiPSC-derived neurons; conditions: for IC50: Homo sapiens, Neuron
[5] = tested on: hiPSC-CMs; assay: Cardiotoxicity screen, CellTiter-Glo cell viability in hiPSC-derived cardiomyocytes; conditions: 24 h; for IC50: Homo sapiens, Cardiomyocyte, read-out: cardiotoxicity IC50; for cardiotoxicity (in words): hiPSC-CMs, CellTiter-Glo
[6] = tested on: Vero (African monkey epithelial) cells; conditions: cited from earlier work
[7] = tested on: Huh7.5 (human epithelial-like) cells; conditions: Huh7.5 cells; cited from earlier work
[8] = following the clinical dosing regimen; cited from earlier work
[9] = 24 h, read-out: neurotoxicity IC50
[10] = hiPSC-NEURs, 24 h, CellTiter-Glo

Structure (SMILES) | cardiotoxicity (in words) [1] | neurotoxicity (in words) [2] | in-hospital mortality ([3]; COVID-19 patients, 200 mg three times per day) | IC50 [4, 9] [µM] | IC50 [5] [µM] | further neurotoxicity on addition of azithromycin [2] | cell toxicity [6] | cell toxicity [7] | neurotoxicity (in words) [4, 10] | neurotoxicity (in words) ([4]; hiPSC-NEURs, 24 h, CellTiter-Glo, listed as Hydroxychloroquine) | further neurotoxicity on addition of azithromycin ([4]; hiPSC-NEURs, combined with 5 µM or 10 µM azithromycin, 24 h, CellTiter-Glo) | cardiotoxicity (in words) [5] | plasma concentration, lower end [8] [µM] | plasma concentration, upper end [8] [µM] | adverse effects on the cardiovascular system [3] | IC50 ([4]; read-out: neurotoxicity, individual variability between individuals (lowest)) [µM]
CCOC(=O)c1c(CSc2ccccc2)n(C)c2cc(Br)c(O)c(CN(C)C)c12 [arbidol, arbidol hydrochloride] | Cardiotoxic | Neurotoxic | increased risk of in-hospital mortality | 42 | 61 |  |  |  |  |  |  |  |  |  |  | 
CCN(CC)CCCC(C)Nc1ccnc2cc(Cl)ccc12 (stereo not shown) [chloroquine] |  | Neurotoxic |  | 71 |  | did not induce further neurotoxicity |  |  |  |  |  |  |  |  |  | 
CCN(CCO)CCCC(C)Nc1ccnc2cc(Cl)ccc12 (stereo not shown) [hydroxychloroquine] |  |  |  | 52 |  |  | observe toxicity | observe toxicity | toxicity in neurons | Neurotoxic | did not induce further neurotoxicity | not cardiomyocytes |  |  |  | 
CCC(CC)COC(=O)[C@H](C)N[P@](=O)(OC[C@H]1O[C@@](C#N)(c2ccc3c(N)ncnn23)[C@H](O)[C@@H]1O)Oc1ccccc1 [remdesivir] |  |  |  | 41 | 51 |  | did not observe cell toxicity | did not observe cell toxicity | Neurotoxic |  |  | Cardiotoxic | ≥ 16.7 | ≤ 1700 | hypotension, atrial fibrillation rhythm, and sinus bradycardia | 3
